Assays:
[1] = target: T1, BRD4 bromo domain 2 [BRD4(2)] (Homo sapiens, UniProt O60885); test: BRD4(2)/acetylated peptide H4 binding assay (TR-FRET); settings: inhibition of interaction between His6-tagged BRD4(2) (amino acids 357-445) and acetylated histone H4 peptide
T1 construct: N-terminally His6-tagged BRD4(2) (amino acids 357-445); made in house; host or cells: E. coli
Source text: (§1) Protein-Protein Interaction Assay: BRD4/Acetylated Peptide H4 Binding Assay
2. Assay Description for BRD4 Bromo Domain 2 [BRD4(2)]
To assess the BRD4(2) binding strength of the substances described in this application, the ability thereof to inhibit the interaction between BRD4(2) and acetylated histone H4 in a dose-dependent manner was quantified.
(§2) For this purpose, a time-resolved fluorescence resonance energy transfer (TR-FRET) assay was used, which measures the binding between N-terminally His6-tagged BRD4(2) (amino acids 357-445) and a synthetic acetylated histone H4 (Ac-H4) peptide with sequence SGRGK(Ac)GGK(Ac)GLGK(Ac)GGAK(Ac)RHRKVLRDNGSGSK-biotin. The recombinant BRD4(2) protein produced in-house according to Filippakopoulos et al., Cell, 2012, 149:214-231 was expressed in E. coli and purified by means of (Ni-NTA) affinity and (Sephadex G-75) size exclusion chromatography. The Ac-H4 peptide can be purchased, for example, from Biosyntan (Berlin, Germany).
(§3) In the assay, typically 11 different concentrations of each substance (0.1 nM, 0.33 nM, 1.1 nM, 3.8 nM, 13 nM, 44 nM, 0.15 μM, 0.51 μM, 1.7 μM, 5.9 μM and 20 μM) were analysed as duplicates on the same microtitre plate. For this purpose, 100-fold concentrated solutions in DMSO were prepared by serial dilutions (1:3.4) of a 2 mM stock solution into a clear, 384-well microtitre plate (Greiner Bio-One, Frickenhausen, Germany). From this, 50 nl were transferred into a black test plate (Greiner Bio-One, Frickenhausen, Germany). The test was started by the addition of 2 μl of a 2.5-fold concentrated BRD4(2) solution (final concentration typically 100 nM in the 5 μl of reaction volume) in aqueous assay buffer [50 mM HEPES pH 7.5, 50 mM sodium chloride (NaCl); 50 mM potassium fluoride (KF); 0.25 mM CHAPS and 0.05% serum albumin (BSA)] to the substances in the test plate. This was followed by a 10-minute incubation step at 22° C. for the pre-equilibration of putative complexes between BRD4(2) and the substances.
(§4) The mixture was then incubated in the dark at 22° C. for one hour and then at 4° C. for at least 3 hours and for no longer than overnight. The formation of BRD4(2)/Ac-H4 complexes was determined by the measurement of the resonance energy transfer from the streptavidin-Eu chelate to the anti-6His-XL665 antibody present in the reaction. For this purpose, the fluorescence emission was measured at 620 nm and 665 nm after excitation at 330-350 nm in a TR-FRET measuring instrument, for example a Rubystar or Pherastar (both from BMG Lab Technologies, Offenburg, Germany) or a Viewlux (Perkin-Elmer). The ratio of the emissions at 665 nm and at 622 nm was taken as an indicator of the amount of BRD4(2)/Ac-H4 complexes formed.
(§5) The data (ratios) obtained were normalized, with 0% inhibition corresponding to the mean from the measurements for a set of controls (typically 32 data points) in which all the reagents were present. In these, in place of test substances, 50 nl of DMSO (100%) were used. Inhibition of 100% corresponded to the mean from the measurements for a set of controls (typically 32 data points) in which all the reagents except BRD4(2) were present. The IC50 was determined by regression analysis based on a 4-parameter equation (minimum, maximum, IC50, Hill; Y=max+(min−max)/(1+(X/IC50)Hill).

[2] = target: T2, BRD4 bromo domain 1 [BRD4(1)] (Homo sapiens, UniProt O60885); test: BRD4(1)/acetylated peptide H4 binding assay (TR-FRET); settings: inhibition of interaction between His6-tagged BRD4(1) (amino acids 67-152) and acetylated histone H4 peptide
T2 construct: N-terminally His6-tagged BRD4(1) (amino acids 67-152); made in house; host or cells: E. coli
Source text: as §1
1. Assay Description for BRD4 Bromo Domain 1 [BRD4(1)]
To assess the BRD4(1) binding strength of the substances described in this application, the ability thereof to inhibit the interaction between BRD4(1) and acetylated histone H4 in a dose-dependent manner was quantified.
as §2, with “BRD4(1)” for “BRD4(2)”, “67-152)” for “357-445)”, “GRGK(Ac)GGK(Ac)GLGK(Ac)GGAK(Ac)RHGSGSK-biotin.” for “SGRGK(Ac)GGK(Ac)GLGK(Ac)GGAK(Ac)RHRKVLRDNGSGSK-biotin.”
as §3, with “concentrated BRD4(1)” for “concentrated BRD4(2)”, “typically 10” for “typically 100”, “chloride (NaCl),” for “chloride (NaCl); 50 mM potassium fluoride (KF);”, “between BRD4(1)” for “between BRD4(2)”
as §4, with “BRD4(1)/Ac-H4” for “BRD4(2)/Ac-H4”, “cryptate” for “chelate”
as §5, with “BRD4(1)” for “BRD4(2)”

SMILES | IC50 [1] [nM] | IC50 [2] [nM]
COc1cc(C(=O)N2CC3(CCS3(=O)=O)C2)ccc1Nc1ccc2c(n1)N(C1CCCCC1)[C@H](C)C(=O)N2C [Example 74, (3R)-4-Cyclohexyl-6-({4-[(1,1-dioxido-1-thia-6-azaspiro[3.3]hept-6-yl)carbonyl]-2-methoxyphenyl}amino)-1,3-dimethyl-3,4-dihydropyrido[2,3-b]pyrazin-2(1H)-one] | 156 | 300
C[C@@H]1C(=O)N(C)c2ccc(Nc3ccc(C(=O)N4CCN(C(=O)OC(C)(C)C)CC4)cc3)nc2N1Cc1ccccc1 [Example 76, tert-Butyl 4-(4-{[(3R)-4-benzyl-1,3-dimethyl-2-oxo-1,2,3,4-tetrahydropyrido[2,3-b]pyrazin-6-yl]amino}benzoyl)piperazine-1-carboxylate] | 273 | 840
COc1cc(C(=O)N2CC3(CCS3(=O)=O)C2)ccc1Nc1ccc2c(n1)N(C1CCCCCC1)[C@H](C)C(=O)N2C [Example 84, (3R)-4-Cycloheptyl-6-({4-[(1,1-dioxido-1-thia-6-azaspiro[3.3]hept-6-yl)carbonyl]-2-methoxyphenyl}amino)-1,3-dimethyl-3,4-dihydropyrido[2,3-b]pyrazin-2(1H)-one] | 165 | 448
C[C@@H]1C(=O)N(C)c2ccc(Nc3ccc(C(=O)NC4CN(C)C4)cc3)nc2N1C1CCCCCC1 [Example 85, 4-{[(3R)-4-Cycloheptyl-1,3-dimethyl-2-oxo-1,2,3,4-tetrahydropyrido[2,3-b]pyrazin-6-yl]amino}-N-(1-methylazetidin-3-yl)benzamide] | 98 | 186
CC(=O)N1CCC(NC(=O)c2ccc(Nc3ccc4c(n3)N(C3CCCCCC3)[C@H](C)C(=O)N4C)cc2)CC1 [Example 86, N-(1-Acetylpiperidin-4-yl)-4-{[(3R)-4-cycloheptyl-1,3-dimethyl-2-oxo-1,2,3,4-tetrahydropyrido[2,3-b]pyrazin-6-yl]amino}benzamide] | 100 | 180
COc1cc(C(=O)NC2CN(C)C2)ccc1Nc1ccc2c(n1)N(C1CCCCCC1)[C@H](C)C(=O)N2C [Example 87, 4-{[(3R)-4-Cycloheptyl-1,3-dimethyl-2-oxo-1,2,3,4-tetrahydropyrido[2,3-b]pyrazin-6-yl]amino}-3-methoxy-N-(1-methylazetidin-3-yl)benzamide] | 75 | 216
COc1cc(C(=O)NC2CCN(C(C)=O)CC2)ccc1Nc1ccc2c(n1)N(C1CCCCCC1)[C@H](C)C(=O)N2C [Example 88, N-(1-Acetylpiperidin-4-yl)-4-{[(3R)-4-cycloheptyl-1,3-dimethyl-2-oxo-1,2,3,4-tetrahydropyrido[2,3-b]pyrazin-6-yl]amino}-3-methoxybenzamide] | 146 | 339
C[C@@H]1C(=O)N(C)c2ccc(Nc3ccc(C(=O)NCCN4CCN(C)CC4)cc3)nc2N1C1CCCCCC1 [Example 89, 4-{[(3R)-4-Cycloheptyl-1,3-dimethyl-2-oxo-1,2,3,4-tetrahydropyrido[2,3-b]pyrazin-6-yl]amino}-N-{2-(4-methylpiperazin-1-yl)ethyl]benzamide] | 93 | 185
C[C@@H]1C(=O)N(C)c2ccc(Nc3ccc(C(=O)NC4CCC(O)CC4)cc3)nc2N1C1CCCCCC1 (stereo partly drawn) [Example 90, 4-{[(3R)-4-Cycloheptyl-1,3-dimethyl-2-oxo-1,2,3,4-tetrahydropyrido[2,3-b]pyrazin-6-yl]amino}-N-(4-hydroxycyclohexyl)benz-amide] | 208 | 341
CC(C)N1CCN(C(=O)c2ccc(Nc3ccc4c(n3)N(C3CCCCCC3)[C@H](C)C(=O)N4C)cc2)CC1 [Example 92, (3R)-4-Cylcoheptyl-1,3-dimethyl-6-[(4-{[4-(propan-2-yl)piperazin-1-yl]carbonyl}phenyl)amino]-3,4-dihydropyrido[2,3-b]pyrazin-2(1H)-one] | 209 | 325
C[C@@H]1C(=O)N(C)c2ccc(Nc3ccc(C(=O)N4CC5(COC5)C4)cc3)nc2N1C1CCCCCC1 [Example 93, (3R)-4-Cycloheptyl-1,3-dimethyl-6-{[4-(2-oxa-6-azaspiro[3.3]hept-6-ylcarbonyl)phenyl]amino}-3,4-dihydropyrido[2,3-b]pyrazin-2(1H)-one] | 90 | 317
C[C@@H]1C(=O)N(C)c2ccc(Nc3ccc(S(=O)(=O)N(C)C)cc3)nc2N1Cc1ccccc1 [Example 94, 4-{[(3R)-4-Benzyl-1,3-dimethyl-2-oxo-1,2,3,4-tetrahydropyrido[2,3-b]pyrazin-6-yl]amino}-N,N-dimethylbenzenesulphonamide] | 111 | 156
C[C@@H]1C(=O)N(C)c2ccc(Nc3ccc(S(=O)(=O)N(C)C)cc3)nc2N1C1CCCCCC1 [Example 95, 4-{[(3R)-4-Cycloheptyl-1,3-dimethyl-2-oxo-1,2,3,4-tetrahydropyrido[2,3-b]pyrazin-6-yl]amino}-N,N-dimethylbenzenesulphonamide] | 126 | 589

From patent US20160193206A1, “BET-PROTEIN-INHIBITING DIHYDROPYRIDOPYRAZINONES” (BAYER PHARMA AKTIENGESELLSCHAFT, priority 2012, published 2016)
